For the assay, the target named is T1, KCNQ2/3 channels (Homo sapiens, UniProt O43525+O43526).
T1 construct: expressed in transfected cells
In words: Fluorescence assay using a voltage sensitive dye (fluorimetry). Format: cell-based. Particulars: CHO-K1 cells expressing KCNQ2/3; for Emax: CHO-K1, plateau effect relative to saturated retigabine (50 μM) = 100%, negative values = antagonistic, read-out: Fluorimetry % efficacy (retigabine = 100%); for EC50: IC50 where % efficacy is negative, read-out: Fluorimetry EC50/IC50.

T1 sequence (O43526 whole entry): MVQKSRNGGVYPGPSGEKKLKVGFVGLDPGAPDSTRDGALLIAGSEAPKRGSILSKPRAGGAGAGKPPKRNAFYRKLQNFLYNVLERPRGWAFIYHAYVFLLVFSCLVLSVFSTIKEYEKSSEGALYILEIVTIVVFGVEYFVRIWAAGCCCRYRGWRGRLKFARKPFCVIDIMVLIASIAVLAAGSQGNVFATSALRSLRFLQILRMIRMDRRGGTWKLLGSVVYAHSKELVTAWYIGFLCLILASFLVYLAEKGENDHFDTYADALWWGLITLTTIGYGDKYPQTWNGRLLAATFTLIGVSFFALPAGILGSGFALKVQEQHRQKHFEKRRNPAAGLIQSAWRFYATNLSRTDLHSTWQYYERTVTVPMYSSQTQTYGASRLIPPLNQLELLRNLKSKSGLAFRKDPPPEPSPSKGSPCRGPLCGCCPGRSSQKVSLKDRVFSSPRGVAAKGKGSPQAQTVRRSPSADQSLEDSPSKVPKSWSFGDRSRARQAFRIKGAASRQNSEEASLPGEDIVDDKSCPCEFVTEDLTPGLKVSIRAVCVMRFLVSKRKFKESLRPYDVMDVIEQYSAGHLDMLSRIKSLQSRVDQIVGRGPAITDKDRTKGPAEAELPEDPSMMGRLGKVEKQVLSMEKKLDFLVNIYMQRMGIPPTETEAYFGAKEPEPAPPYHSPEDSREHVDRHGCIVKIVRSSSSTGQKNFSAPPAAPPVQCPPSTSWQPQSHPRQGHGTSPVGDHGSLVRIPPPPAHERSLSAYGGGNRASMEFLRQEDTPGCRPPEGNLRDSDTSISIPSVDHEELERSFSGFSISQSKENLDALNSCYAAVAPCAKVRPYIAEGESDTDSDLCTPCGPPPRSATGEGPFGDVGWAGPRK
T1 sequence (O43525 whole entry): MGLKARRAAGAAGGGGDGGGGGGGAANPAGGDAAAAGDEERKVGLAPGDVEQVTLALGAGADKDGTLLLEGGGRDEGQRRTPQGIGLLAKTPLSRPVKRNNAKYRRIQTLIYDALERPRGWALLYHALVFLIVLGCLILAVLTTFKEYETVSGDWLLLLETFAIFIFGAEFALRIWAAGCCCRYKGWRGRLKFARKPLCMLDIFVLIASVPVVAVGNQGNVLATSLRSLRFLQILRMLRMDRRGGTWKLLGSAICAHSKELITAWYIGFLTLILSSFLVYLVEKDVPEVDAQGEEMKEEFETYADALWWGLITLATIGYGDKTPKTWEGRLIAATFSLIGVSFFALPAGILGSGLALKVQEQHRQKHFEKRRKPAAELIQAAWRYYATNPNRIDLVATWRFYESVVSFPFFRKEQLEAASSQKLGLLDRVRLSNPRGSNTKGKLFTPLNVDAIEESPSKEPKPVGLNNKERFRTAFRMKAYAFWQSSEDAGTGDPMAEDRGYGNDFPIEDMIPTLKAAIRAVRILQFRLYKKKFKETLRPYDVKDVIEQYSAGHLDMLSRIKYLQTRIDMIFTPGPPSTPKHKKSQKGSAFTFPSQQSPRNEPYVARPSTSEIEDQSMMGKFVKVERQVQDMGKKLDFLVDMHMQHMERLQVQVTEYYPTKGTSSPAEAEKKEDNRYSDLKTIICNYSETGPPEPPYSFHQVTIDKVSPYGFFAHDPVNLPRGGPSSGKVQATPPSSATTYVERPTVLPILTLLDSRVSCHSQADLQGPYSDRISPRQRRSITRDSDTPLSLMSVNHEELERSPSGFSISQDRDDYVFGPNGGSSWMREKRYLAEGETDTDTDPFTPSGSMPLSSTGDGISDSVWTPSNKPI

For `CCNc1nc(N2CCOCC2)cc(C)c1C(=O)NCc1cccc(F)c1` [Example 20, 2-Ethylamino-N-[(3-fluorophenyl)-methyl]-4-methyl-6-morpholin-4-yl-pyridine-3-carboxylic acid amide], the Emax is 140% and the EC50 came to 782 nM. The corresponding values for `CCSc1nc(N2CCOC[C@H]2C)cc(C)c1C(=O)NCCCC(F)(F)F` [Example 235, 2-Ethylsulfanyl-4-methyl-6-[(3R)-3-methyl-morpholin-4-yl]-N-(4,4,4-trifluoro-butyl)-pyridine-3-carboxylic acid amide] are 235% and 196 nM.

Turning to `Cc1cc(N2CCOCC2)nc(C(C)C)c1C(=O)NCCCC(C)(C)C` [Example 314, N-(4,4-Dimethyl-pentyl)-2-isopropyl-4-methyl-6-morpholin-4-yl-pyridine-3-carboxylic acid amide], the Emax was 242% and the EC50 was 18 nM. For `CC(C)c1cc(N2CCOCC2)nc(C(C)C)c1C(=O)NCc1ccc(Cl)cc1` [Example 357, N-[(4-Chlorophenyl)-methyl]-2,4-diisopropyl-6-morpholin-4-yl-pyridine-3-carboxylic acid amide], the Emax turned out to be 17%. In the case of `Cc1cc(N2CCOCC2)nc(C(C)C)c1C(=O)NCc1ccc(F)c(F)c1` [Example 310, N-[(3,4-Difluoro-phenyl)-methyl]-2-isopropyl-4-methyl-6-morpholin-4-yl-pyridine-3-carboxylic acid amide], the Emax came to 174% and the EC50 was found to be 43 nM. For `CSc1nc(N2CCOCC2)cc(C)c1C(=O)NCc1ccc(F)cc1` [Example 154, N-[(4-Fluorophenyl)-methyl]-4-methyl-2-methylsulfanyl-6-morpholin-4-yl-pyridine-3-carboxylic acid amide] the same measures were 154% and 394 nM. The corresponding values for `CCSc1nc(N2C(C)COCC2C)cc(C)c1C(=O)NCc1cccc(F)c1` (stereo not drawn) [Example 262, 6-(3,5-Dimethyl-morpholin-4-yl)-2-ethylsulfanyl-N-[(3-fluorophenyl)-methyl]-4-methyl-pyridine-3-carboxylic acid amide] are 182% and 374 nM.

With `CCSc1nc(N2CCOCC2)cc(C)c1C(=O)NCCCc1ccccc1F` [Example 129, 2-Ethylsulfanyl-N-[3-(2-fluorophenyl)-propyl]-4-methyl-6-morpholin-4-yl-pyridine-3-carboxylic acid amide], the Emax amounted to 206% and the EC50 was 221 nM. As for `CCSc1nc(N2CCN(C(C)=O)CC2)cc(C)c1C(=O)NCc1cccc(F)c1` [Example 144, 6-(4-Acetyl-piperazin-1-yl)-2-ethylsulfanyl-N-[(3-fluorophenyl)-methyl]-4-methyl-pyridine-3-carboxylic acid amide], the Emax stood at 59%.

With `COc1nc(N2CCOCC2)cc(C)c1C(=O)NCc1ccccc1-c1ccccc1` [Example 88, 2-Methoxy-4-methyl-6-morpholin-4-yl-N-[(2-phenyl-phenyl)-methyl]-pyridine-3-carboxylic acid amide], the Emax was -83% and the EC50 is 253 nM. Turning to `CCSc1nc(N2CCCc3ccccc32)cc(C)c1C(=O)NCc1cccc(F)c1` [Example 304, 2-Ethylsulfanyl-N-[(3-fluorophenyl)-methyl]-4-methyl-6-(1,2,3,4-tetrahydro-quinolin-1-yl)-pyridine-3-carboxylic acid amide], the Emax was 81% and the EC50 is 348 nM. For `CCSc1nc(N2CCO[C@H](C)C2)cc(C)c1C(=O)NCc1cccc(F)c1` [Example 139, 2-Ethylsulfanyl-N-[(3-fluorophenyl)-methyl]-4-methyl-6-[(2R)-2-methyl-morpholin-4-yl]-pyridine-3-carboxylic acid amide] the same measures were 146% and 770 nM. As for `Cc1cc(N2CCOC[C@H]2C)nc(C2CC2)c1C(=O)NCc1ccc(F)cc1` [Example 196, 2-Cyclopropyl-N-[(4-fluorophenyl)-methyl]-4-methyl-6-[(3R)-3-methyl-morpholin-4-yl]-pyridine-3-carboxylic acid amide], the Emax was 197% and the EC50 was 103 nM. For `CCSc1nc(N2CCOCC2)cc(C)c1C(=O)NCCCC(F)(F)F` [Example 84, 2-Ethylsulfanyl-4-methyl-6-morpholin-4-yl-N-(4,4,4-trifluoro-butyl)-pyridine-3-carboxylic acid amide] the same measures were 203% and 357 nM. For `CCCc1nc(N2CCOC[C@H]2C)cc(C)c1C(=O)NCCCC(C)(C)C` [Example 199, N-(4,4-Dimethyl-pentyl)-4-methyl-6-[(3R)-3-methyl-morpholin-4-yl]-2-propyl-pyridine-3-carboxylic acid amide] the same measures were 232% and 50 nM. For `CCSc1nc(N2CCOC[C@H]2C)cc(C)c1C(=O)NCCCC(C)(C)C` [Example 193, N-(4,4-Dimethyl-pentyl)-2-ethylsulfanyl-4-methyl-6-[(3R)-3-methyl-morpholin-4-yl]-pyridine-3-carboxylic acid amide] the same measures were 246% and 29 nM. In the case of `CCSc1nc(N2CCOCC2)cc(C)c1C(=O)NCC1CCCC1` [Example 43, N-(Cyclopentyl-methyl)-2-ethylsulfanyl-4-methyl-6-morpholin-4-yl-pyridine-3-carboxylic acid amide], the Emax is 189% and the EC50 came out at 679 nM. For the molecule `CC(=O)N(C)c1nc(N2CCOCC2)cc(C)c1C(=O)NCc1cccc(F)c1` [Example 341, 2-(Acetyl-methyl-amino)-N-[(3-fluorophenyl)-methyl]-4-methyl-6-morpholin-4-yl-pyridine-3-carboxylic acid amide], the Emax came out at 22%. For `CCSc1nc(N2CCOCC2)cc(C)c1C(=O)NCC1CCCCO1` (stereo not drawn) [Example 69, 2-Ethylsulfanyl-4-methyl-6-morpholin-4-yl-N-(tetrahydro-pyran-2-yl-methyl)-pyridine-3-carboxylic acid amide], the Emax stood at 160% and the EC50 turned out to be 4480 nM. On to `COc1nc(N2CCOC[C@H]2C)cc(C)c1C(=O)NCc1ccc(F)cc1` [Example 181, N-[(4-Fluorophenyl)-methyl]-2-methoxy-4-methyl-6-[(3R)-3-methyl-morpholin-4-yl]-pyridine-3-carboxylic acid amide], for which the Emax came to 167% and the EC50 was found to be 255 nM. Take `CSc1nc(N2CCOCC2)cc(C)c1C(=O)NCc1ccc(F)c(F)c1` [Example 155, N-[(3,4-Difluoro-phenyl)-methyl]-4-methyl-2-methylsulfanyl-6-morpholin-4-yl-pyridine-3-carboxylic acid amide]: the Emax stood at 158% and the EC50 worked out at 152 nM.

For `CCSc1nc(N2CCO[C@@H](COC)C2)cc(C)c1C(=O)NCc1cccc(F)c1` [Example 223, 2-Ethylsulfanyl-N-[(3-fluorophenyl)-methyl]-6-[(2R)-2-(methoxymethyl)-morpholin-4-yl]-4-methyl-pyridine-3-carboxylic acid amide], the Emax was determined as 137% and the EC50 is 3660 nM. The corresponding values for `CCSc1nc(N2CCOC(C(F)(F)F)C2)cc(C)c1C(=O)NCc1cccc(F)c1` (stereo not drawn) [Example 260, 2-Ethylsulfanyl-N-[(3-fluorophenyl)-methyl]-4-methyl-6-[2-(trifluoromethyl)-morpholin-4-yl]-pyridine-3-carboxylic acid amide] are 127% and 149 nM. For `CCSc1nc(N2CCOC[C@@H]2C)cc(C)c1C(=O)NCc1cccc(F)c1` [Example 296, 2-Ethylsulfanyl-N-[(3-fluorophenyl)-methyl]-4-methyl-6-[(3S)-3-methyl-morpholin-4-yl]-pyridine-3-carboxylic acid amide] the same measures were 222% and 189 nM.

With `CCSc1nc(N2CCOCC2)cc(C)c1C(=O)NCc1cc(C)cc(C)c1` [Example 208, N-[(3,5-Dimethyl-phenyl)-methyl]-2-ethylsulfanyl-4-methyl-6-morpholin-4-yl-pyridine-3-carboxylic acid amide], the Emax worked out at 61% and the EC50 stood at 281 nM. For `CCSc1nc(N2CC3CC2CO3)cc(C)c1C(=O)NCc1cccc(F)c1` (stereo not drawn) [Example 159, 2-Ethylsulfanyl-N-[(3-fluorophenyl)-methyl]-4-methyl-6-(3-oxa-6-azabicyclo[2.2.1]heptan-6-yl)-pyridine-3-carboxylic acid amide] the same measures were 149% and 1260 nM. The corresponding values for `CCSc1nc(N2CCOCC2)cc(C)c1C(=O)NCc1cc(F)ccc1F` [Example 101, N-[(2,5-Difluoro-phenyl)-methyl]-2-ethylsulfanyl-4-methyl-6-morpholin-4-yl-pyridine-3-carboxylic acid amide] are 100% and 133 nM.

Take `CCCc1nc(N2CCOC[C@H]2C)cc(C)c1C(=O)NCc1ccc(Cl)cc1` [Example 266, N-[(4-Chlorophenyl)-methyl]-4-methyl-6-[(3R)-3-methyl-morpholin-4-yl]-2-propyl-pyridine-3-carboxylic acid amide]: the Emax stood at 210% and the EC50 was 57 nM. The corresponding values for `CCSc1nc(N(C)CC(C)=O)cc(C)c1C(=O)NCc1cccc(F)c1` [Example 253, 2-Ethylsulfanyl-N-[(3-fluorophenyl)-methyl]-4-methyl-6-[methyl-(2-oxo-propyl)-amino]-pyridine-3-carboxylic acid amide] are 79% and 5740 nM.

Turning to `CCSc1nc(N(C)C2CCCC(OC)C2)cc(C)c1C(=O)NCc1cccc(F)c1` (stereo not drawn) [Example 307, 2-Ethylsulfanyl-N-[(3-fluorophenyl)-methyl]-6-[(3-methoxy-cyclohexyl)-methyl-amino]-4-methyl-pyridine-3-carboxylic acid amide], the Emax worked out at 104% and the EC50 amounted to 178 nM.

For the origin of these results see patent US9168259B2 (GRÜNENTHAL GMBH, priority 2010, dated 2015).
